Reference: patent publication US9273006B2, “Anabolic compounds for treating and preventing bone loss diseases” (SYDDANSK UNIVERSITET, priority 2012, dated 2016)
Several values for one entry are separate records, joined by “and”; a condition that tells them apart may be missing. Equal entries are not always repeated. Where two headings read alike, the source gives them in different places.

Legend:
[1] = test system: hMSC-TERT; experiment: In vitro osteoblast differentiation in OIM (ALP activity, alizarin red, qRT-PCR); assay type: cell-based, human; conditions: co-treatment with H-8, hMSC
Protocol: F) H-8 enhances ALP activity of hMSC, in the absence of serum.
Adding H-8 (25 μM) to the osteogenic induction media, during 9-days in vitro hMSC osteogenic differentiation, enhanced expression of osteoblastic markers as shown by qRT-PCR analysis. **P≦0.05, ***P≦0.005 (significant difference as compared to vehicle).
H-8 was added (25 μM) to the OIM at different time points during 12-days period.
In order to confirm the results obtained from the initial screen, the present inventors incubated hMSC-TERT and primary human bone marrow derived MSC (hBMSC) in osteogenic induction medium (OIM) supplemented with H-8 (dose range 1-30 μM) or vehicle. […] To determine the stage of differentiation at which the effect of H-8 was most apparent, the present inventors added H-8 (25 μM) to the OIM at different time points during 12-days period.

[2] = test system: TGFβ signaling in hMSC; experiment: TGFβ signaling, qRT-PCR and western blot; assay type: cell-based, human; conditions: co-treatment with H-8
Source text: (C): Western blot analysis of p-Smad and p-Akt reveled that the enahcing effect of H-8 on osteoblast differentiation of hMSC is mediated through activation of non-canonical TGFβ signaling. (D): SB431542, a selective inhibitor of TGWU activity abolished the enhanced phosphorylation of Akt and smad2 after H-8 treatment.
To investigate the mechanisms of the enhancing effects of H-8 on osteoblast differentiation of hMSC, the present inventors performed a DNA microarray analysis of hMSC-TERT under osteogenic culture conditions, in the presence or absence of the H-8 (25 μM). […] In order to identify the pathway that is primarily regulated by H-8 treatment, phosphorylation of canonical and non-canonical TGFβ signaling components was evaluated 5 minutes and 15 minutes after H-8 treatment. The inventors also evaluated the effect of TGFβ3 treatment on H-8 induced phosphorylation of Smad2 and Akt. […] This observation further confirms that the enhancing effect of H-8 on osteoblast differentiation of hMSC is mediated through regulation of TGFβ signaling.

[3] = test system: hMSC-TERT
[4] = 1 μM inhibitor in osteogenic inducing media, 6 days after induction, hMSC-TERT
[5] = 10 μM inhibitor in osteogenic inducing media, 6 days after induction, hMSC-TERT

Row | Molecule | effect on H-8 enhanced osteoblast differentiation (ALP activity, matrix mineralization) [1] | effect on H-8 induced Smad2 and Akt phosphorylation [2] | Relative ALP activity [3, 4] | Relative ALP activity [3, 5] | Relative ALP activity [3]
1 | NC(=O)c1ccc(-c2nc(-c3ccccn3)c(-c3ccc4c(c3)OCO4)[nH]2)cc1 [SB431542] | blunted the enhancing effect of H-8 on osteoblast differentiation of hMSC | abolished the enhancing effect of H-8 on Smad2 and Akt phosphorylation |  |  | 
2 | CCCCCCCCCCCCC/C=C/[C@@H](O)[C@@H](N)CO [Sphingosine] |  |  | 1.195 | Toxic | 
3 | CN[C@@H]1C[C@H]2O[C@@](C)([C@@H]1OC)n1c3ccccc3c3c4c(c5c6ccccc6n2c5c31)C(=O)NC4 [Staurosporine] |  |  | TOXIC | Toxic | 
4 | CC1=C(O)C(=O)[C@@H]2O[C@@H]2C1=O [Terreic acid] |  |  | 0.2721 | 0.338 | 
5 | CC(C)(C)c1cc(C=C(C#N)C#N)cc(C(C)(C)C)c1O [Tyrphostin9] |  |  | 0.3388 | Toxic | 
6 | N#CC(C#N)=Cc1ccc(O)c(O)c1 [Tyrphostin 23] |  |  | 0.9904 | 0.7067 | 
7 | N#CC(C#N)=Cc1cc(O)c(O)c(O)c1 [Tyrphostin 25] |  |  | 0.9397 | 0.8233 | 
8 | N#C/C(=C\c1ccc(O)c(O)c1)C(N)=O [Tyrphostin 46] |  |  | 1.179 | 0.9029 | 
9 | N#C/C(=C\c1ccc(O)c(O)c1)C(N)=S [Tyrphostin 47] |  |  | 0.901 | 1.005 | 
10 | N#CC(C#N)=C(N)/C(C#N)=C/c1cc(O)c(O)c(O)c1 [Tyrphostin 51] |  |  | 0.8997 | 0.8566 | 
11 | N#CC(C#N)=Cc1cc(O)c(O)c([N+](=O)[O-])c1 [Tyrphostin AG 1288] |  |  | 0.8684 | 0.802 | 
12 | Cc1cc2ncc(-c3ccccc3)nc2cc1C [Tyrphostin AG 1295] |  |  | 1.007 | 0.3556 | 
13 | COc1cc2ncnc(Nc3cccc(Cl)c3)c2cc1OC [Tyrphostin AG 1478] |  |  | 1.097 | Toxic | 
14 | N#CC(=C(/N)Sc1ccccc1N)/C(C#N)=C(\N)Sc1ccccc1N [U-0126] |  |  |  |  | 0.3485 and 0.281
15 | COC[C@H]1OC(=O)c2coc3c2[C@@]1(C)C1=C(C3=O)[C@@H]2CCC(=O)[C@@]2(C)C[C@H]1OC(C)=O [Wortmannin] |  |  | 0.8301 | 0.9122 | 
16 | C[C@@H](N)[C@H]1CC[C@H](C(=O)Nc2ccncc2)CC1 [Y-27632] |  |  | 0.9848 | 0.4092 | 
17 | Cc1ccc(NC(=O)c2cccc(N(C)C)c2)cc1NC(=O)c1ccc(O)cc1 [ZM 336372] |  |  | 0.869 | 0.5373 | 
18 | C=CC(=O)c1ccc2ccccc2c1 [ZM 449829] |  |  | 0.9444 | 0.8946 | 
19 | Cn1cnc2nc(NCCO)nc(NCc3ccccc3)c21 [iso-Olomoucine] |  |  | 1.084 | 0.9318 | 
20 | BML-265 |  |  | 0.3954 | Toxic | 
21 | Indirubin-3′-monoxime |  |  | 0.2589 | 0.3697 | 
22 | TGFβ3: Transforming growth factor β3, added to hMSC together with H-8 (protein, UniProt P10600 301-412, looked up) Transforming growth factor …: ALDTNYCFRNLEENCCVRPLYIDFRQDLGWKWVHEPKGYYANFCSGPCPYLRSADTTHSTVLGLYNTLNPEASASPCCVPQDLEPLTILYYVGRTPKVEQLSNMVVKSCKCS |  | enhancing effect on H-8 induced Akt and Smad2 phosphorylation |  |  | 
